Data reported in patent US20090274691A1, “Use of CD25 binding molecules in steroid-resistant patients” (priority 2001, published 2009).
“Also recorded” adds a separate entry of the source.

Columns and labels:
ulcerative colitis = conditions: chronically active, steroid-resistant or steroid-dependant ulcerative colitis; cited from earlier work
[1] = test system: PHA stimulated peripheral blood lymphocytes; assay: PHA-induced lymphocyte proliferation (tritiated thymidine uptake), basiliximab in the absence of steroids; assay type: cell-based, human; conditions: for PHA-induced cell proliferation (cpm) / Inhibition (%): basiliximab 1 mg/l, absence of steroids; for Inhibition (%): vs PHA alone
Procedure: (§1) Measurement of lymphocyte steroid sensitivity: The sensitivity of peripheral blood lymphocytes to glucocorticoids is assessed in a functional assay i.e. an in vitro proliferation assay stimulated by phytohaemagglutinin (PHA) and inhibited by dexamethasone. (Hearing S D, et al. Gut 1999; 45:382-8; Hearing S D, et al. J Clin Endocrinol Metab 1999; 84:4149-54). Peripheral blood samples are collected at 09:00 hours, and peripheral blood mononuclear cells (PBMC) are separated by buoyancy centrifugation. Buoyancy centrifugation includes the separation of lymphocytes from the blood sample by centrifugation over a ficol gradient. Ficol allows red blood cells to fall through, but prevents the through-movement of lymphocytes. Peripheral blood mononuclear cells (lymphocytes and marocyes) are collected from the ficol/plasma interface. PBMC proliferation is stimulated with PHA and inhibited with dexamethasone at serial 10 fold dilutions between 10^−6 and 10^−10 mol/1. i.e. 10^−6, 10^−7, 10^−8, 10^−9, 10^−10 mol/1. Cell proliferation is measured by tritiated thymidine uptake i.e. after 2 days of incubation, radioisotape labelled thymidine (^3H-thymidine) is added to the lymphocyte culture medium and became incorporated into the DNA of proliferating lymphocyes. After 6 hours the cells are transferred from the incubator and collected on a filter mat using a cell harvester. The cells are then washed out of the well. The lymphocyte DNA that has incorporated the thymidine is trapped in the filter paper. When radioactivity levels are measured the wells which contain high numbers of actively proliferating lymphocytes (and thus will have incorporated lots of thymidine into the DNA) will have high radioactivity levels. […] The results are calculated as mean counts per minute (cpm) of triplicate cultures. Thymidine incorporation for each concentration of dexamethasone is compared to that of PHA stimulated T lymphocytes in the absence of dexamethasone, and expressed as a percentage of the uninhibited positive control. The effect of different concentrations of basiliximab on lymphocyte proliferation is also studied. In addition, an equal concentration of basiliximab is added to each cell culture medium at all concentrations of dexamethasone and the antiproliferative effect measured.
Effect of […]® on lymphocyte proliferation: Serum concentration of 0.2 mg/l of basiliximab produces >90% IL-2R occupancy. To test the antiproliferative in vitro effect of basiliximab, various concentrations of between 0.01 and 10 mg/l of basiliximab are incubated with lymphocytes in the absence of steroids. These assays confirm that an in vitro concentration of >0.1 to 0.3 mg/l basiliximab is required to produce the in vitro effect of basiliximab. For further studies on the same subjects, a concentration of 1 mg/l is used. In total, the same eight subjects are studied in each experiment. The effect of basiliximab at a concentration of 1 mg/l on PHA-induced cell proliferation in the absence of steroids is shown in Table 1

[2] = test system: PHA-stimulated lymphocytes; assay: Lymphocyte steroid sensitivity: dexamethasone inhibition of PHA-stimulated proliferation with and without basiliximab (Example 1); assay type: cell-based, human; conditions: effect on Imax; subjects 5-8; basiliximab 1 mg/l
Procedure: as §1
Effect of […]® on steroid sensitivity: For all eight subjects, PHA-stimulated lymphocytes are cultured in the presence of increasing concentrations of dexamethasone (10^−10-10^−6 mol/l) in the presence and absence of basiliximab (1 mg/l). In previous studies of ulcerative colitis carried out by the inventor, maximal suppression (Imax)<60% correlated with a poor response to steroid therapy (clinical steroid resistance). The exact value of Imax cannot be measured as it is the inhibition at an infinitely high level of dexamethasone. Thus, the percentage inhibition of proliferation observed at the maximum dexamethasone concentration applied (10^−6 mol/l) is used as the measure of Imax. In practice, there is good agreement between Imax and the estimated asymptotic value for maximal inhibition obtained from dose-response curves (Hearing S D et al (1999) Clin. Endoctrinol. Metab 84:4149-54). A concentration of dexamethasone of 10^−7 mol/l is approximately equivalent in terms of glucocorticoid activity to the serum concentrations of hydrocortisone achieved with intravenous therapy at standard doses. Thus, to make comparisons with the potential effect of basiliximab in vivo, the steroid sensitising effect of basiliximab at this concentration of dexamethasone may also be of interest. […] The subjects are shown in decreasing order of steroid sensitivity (with the most sensitive on the left).

[3] = test system: phytohaemagglutinin stimulated lymphocytes; assay: Lymphocyte steroid sensitivity (Imax) with and without basiliximab, 32 subjects (Example 2); assay type: cell-based, human; conditions: basiliximab 1 mg/L
Procedure: Peripheral blood lymphocytes are isolated from 32 subjects (25 healthy volunteers and 7 patients with quiescent Ulcerative Colitis), on 41 occasions, using buoyant density centrifugation. Lymphocyte steroid sensitivity is assessed by measuring the antiproliferative effect of dexamethasone (DEX) on phytohaemagglutinin stimulated lymphocytes. Maximum steroid induced suppression is expressed as a % of control lymphocyte proliferation (Imax). Imax is measured in the absence and presence of basiliximab (1 mg/L).

IL-2R = target: T1, IL-2R (Homo sapiens, UniProt P01589); conditions: serum concentration of 0.2 mg/l; cited from earlier work
T1 sequence (P01589 22-272): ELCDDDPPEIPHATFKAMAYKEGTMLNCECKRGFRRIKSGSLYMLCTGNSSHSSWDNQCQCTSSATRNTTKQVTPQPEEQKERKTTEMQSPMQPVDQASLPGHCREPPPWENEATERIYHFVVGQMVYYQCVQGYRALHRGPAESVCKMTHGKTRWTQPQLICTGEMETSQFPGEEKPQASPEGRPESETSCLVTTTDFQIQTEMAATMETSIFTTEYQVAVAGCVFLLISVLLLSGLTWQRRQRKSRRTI

[4] = at the dosage levels employed; cited from earlier work

Compound: Cn1cnc([N+](=O)[O-])c1Sc1ncnc2nc[nH]c12 [Azathioprine]
- delayed onset of action (ulcerative colitis): 34 months

Compound: basiliximab
- in vitro concentration required to produce the in vitro (antiproliferative) effect ([1]; 0.01 to 10 mg/l incubated with lymphocytes in the absence of steroids): 0.1 to 0.3 mg/L
- PHA-induced cell proliferation (cpm) ([1]; mean of 8 subjects): 23943 cpm
- Inhibition (%) ([1]; mean of 8 subjects): 37.8%
- PHA-induced cell proliferation (cpm) ([1]; subject 1): 21827 cpm
- Inhibition (%) ([1]; subject 1): 43.5%
- PHA-induced cell proliferation (cpm) ([1]; subject 2): 15157 cpm
- Inhibition (%) ([1]; subject 2): 39.9%
- PHA-induced cell proliferation (cpm) ([1]; subject 3): 27239 cpm
- Inhibition (%) ([1]; subject 3): 33.3%
- PHA-induced cell proliferation (cpm) ([1]; subject 4): 27538 cpm
- Inhibition (%) ([1]; subject 4): 15.4%
- PHA-induced cell proliferation (cpm) ([1]; subject 5): 21446 cpm
- Inhibition (%) ([1]; subject 5): 52.8%
- PHA-induced cell proliferation (cpm) ([1]; subject 6): 35003 cpm
- Inhibition (%) ([1]; subject 6): 47.1%
- PHA-induced cell proliferation (cpm) ([1]; subject 7): 16122 cpm
- Inhibition (%) ([1]; subject 7): 44.2%
- PHA-induced cell proliferation (cpm) ([1]; subject 8): 27209 cpm
- Inhibition (%) ([1]; subject 8): 26.4%
- Modulation of lymphocyte steroid sensitivity (LSS) of steroid-resistant subjects [2]: all become Steroid-sensitive
- Enhancement of the anti-proliferative effect of DEX ([3]; Wilcoxon signed-rank test, p<0.0001): significantly enhanced; also recorded: marked in vitro steroid enhancing effect
- Modulation of steroid-resistant subjects (Imax<60%) to steroid-sensitive ([3]; in vitro): All 8 steroid-resistant subjects (Imax<60%) are modulated (in vitro) to steroid-sensitive
- IL-2R occupancy (IL-2R): > 90%
- Side-effects / safety of administration [4]: safe
